The text below walks through data of patent publication US11453640B2, “Small molecules for disrupting the super elongation complex and inhibiting transcription elongation for cancer therapy” (NORTHWESTERN UNIVERSITY, priority 2018, dated 2022).

Molecules are shown by their SMILES.

Tested on in one data set: not listed separately
Description: Toxicity test in mice (body weight, sickness). Particulars: 5 doses of 10 mg/kg, intraperitoneal, monitored 35 days. It counts as in vivo. How it is done: FIG. 14, related to FIG. 7. SEC disruptors delay tumor progression and improve survival of MDA231-LM2 tumor mice. (A) KL-1 and KL-2 inhibit the colony formation of MDA231-LM2 cells in vitro. 5×10^3 MDA231-LM2 cells were seeded in 6-well plates and treated with KL-1 or KL-2 at the indicated doses for 5 days. Crystal violet staining was performed to stain the colonies. (B) KL-1 and KL-2 induce apoptosis in MDA231-LM2 cells. Bar graph depiction of Annexin V positive MDA231-LM2 cells after 24 hr of KL-1 and KL-2 treatments at the indicated concentrations. Data are represented as Mean+/−SD. […] Each individual line indicates the weights of each mouse during toxicity test.
For the compound `Cc1ccc(Cl)cc1NC(=O)C(=O)CC(=O)c1ccc(F)cc1` [KL-2, N-(5-chloro-2-methylphenyl)-4-oxo-(4-fluorophenyl)-2-oxobutanamide], the “weight loss in mice” value is reported as “does not result in significant weight loss”.

Still in this data set, the particulars now being: 5 doses of 10 mg/kg, monitored 35 days.
With `Cc1ccc(Cl)cc1NC(=O)C(=O)CC(=O)c1ccc(F)cc1` [KL-2, N-(5-chloro-2-methylphenyl)-4-oxo-(4-fluorophenyl)-2-oxobutanamide], the “sign of sickness in mice” value is “no obvious sign of sickness was observed”.

A further data set deals with T1, AFF4-CCNT1 interaction (GST-CCNT1 AA 1-300 and biotin-AFF4 peptide AA 32-67) (Homo sapiens, UniProt O60563).
T1 construct: Recombinant GST-CCNT1 (1-300), which was purified by Glutathione Superflow Agarose from Rosetta cells; VCPBIO (peptide synthesis) Addgene P#432; host or cells: Rosetta cells
T1 sequence (O60563 1-300): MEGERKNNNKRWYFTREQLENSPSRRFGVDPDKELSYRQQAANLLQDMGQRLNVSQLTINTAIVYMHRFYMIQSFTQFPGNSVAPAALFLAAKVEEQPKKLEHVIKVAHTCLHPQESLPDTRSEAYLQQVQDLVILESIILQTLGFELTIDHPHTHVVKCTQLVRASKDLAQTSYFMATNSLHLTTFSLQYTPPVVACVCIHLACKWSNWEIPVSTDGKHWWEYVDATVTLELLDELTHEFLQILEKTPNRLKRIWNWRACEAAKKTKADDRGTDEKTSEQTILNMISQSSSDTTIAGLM
As to the kind of experiment: AlphaLISA assay of the AFF4-CCNT1 interaction (Alpha Screen). It counts as binding.
Settings: not given
The source says:
FIG. 1. Peptidomimetic identification of disruptors of the AFF4-CCNT1 interaction within the Super Elongation Complex. (A) Schematic for the identification of small molecule inhibitors of the AFF4-CCNT1 interaction using in silico high-throughput screening. Compounds from the ZINC database were docked with the AFF4-CCNT1 structure (4IMY) using a three-tier glide-docking algorithm, which led to 40 candidates. Residues forming the deep binding pocket of CCNT1 are labeled orange and residues of the AFF4 peptide are labeled red. (B) Validation screening identified KL-1 as a potential SEC disruptor using AlphaLISA screening. GST-CCNT1 (AA 1-300) and biotin-labeled AFF4 peptide (AA 32-67) were used to measure the AFF4-CCNT1 interaction with the AlphaLISA assay. (C) Similarity search for KL-1-like molecules identified KL-2. The peptidomimetic potential of KL-1 and KL-2 can be seen by overlaying them with the AFF4 peptide LFAEP structure. (D) Dose-dependent inhibition of KL-1 and KL-2 on AFF4-CCNT1 interaction. The Ki constants of both compounds were measured with the AlphaLISA assays. (E) Treatment of HEK293T cells with KL-1 and KL-2 results in reduced protein levels of SEC components AFF1 and AFF4 but not CDK9 or CCNT1. HEK293T cells were treated with 20 μM of SEC inhibitors KL-1 or KL-2 for 6 hr. 5 μl, 10 and 20 μl cell lysates were loaded and the protein levels of AFF1, AFF4, CCNT1, CDK9 and Tubulin (load control) were determined by western blotting.
FIG. 8, related to FIG. 1. Peptidomimetic identification of disruptors of the AFF4-CCNT1 interaction within the Super Elongation Complex. (A) Schematic of AlphaLISA assay of the AFF4-CCNT1 interaction. Anti-GST AlphaLISA acceptor beads and AlphaScreen streptavidin donor beads (Perkin Elmer) were used to detect the interaction of GST-CCNT1 (AA1-300) and biotin-AFF4 (AA32-67). (B-C) Optimization of the AlphaLISA assay with various biotin-AFF4 peptide and GST-CCNT1 concentrations. No CCNT1 (B) and mutant AFF4 (C) were used as negative controls. Data are represented as Mean+/−SD. (D) Scheme for chemical synthesis of SEC inhibitors KL-1 and KL-2. Reagents and conditions: a. LDA, THF, −78° C., 15 min., then diethyl oxalate, −78° C. to room temperature. b. NaOH, THF/H2O, room temperature, 15 min. c. EEDQ, 5-chloro-2-methylaniline, THF, room temperature, 24 hr. […] 293T cells were treated with 20 μM of KL-1 or KL-2 for 6 hr, and the protein levels of BRD2, BRD4, Pol II (RPB1), SPT5, MED26, MYC, HSP90 (load control) and Tubulin (load control) were measured by western blotting. (F) Treatment of HCT-116 cells with KL-1 and KL-2 reduced protein levels of SEC components AFF1 and AFF4 but not CDK9 or CCNT1. HCT-116 cells were treated with 20 μM of KL-1 or KL-2 for 6 hr, and the protein levels of AFF1, AFF4, CCNT1, CDK9 and Tubulin (load control) were determined by western blotting. (G-H) Treating cells with KL-1 and KL-2 results in reduced levels of AFF 1 and AFF4. FLAG-AFF1 (G) and FLAG-AFF4 (H) were expressed under the Tet-inducible promoter in HEK293T cells. Cells were treated with 20 μM of the indicated inhibitors for 6 hr for western blotting. […] RNA-seq was performed in HEK293T cells treated for 12 hr with 20 μM of the indicated inhibitors. The log2CPM (counts per million) of the SEC subunits were calculated with HTseq. KL-1 and KL-2 had no significant effects on CCNT1, CDK9 and AFF1 expression, but modest increases in the mRNA levels of AFF4 and ELL2 were observed (n=3). Unpaired two-way ANOVA was used for the statistical testes. **,p<0.05, ***,p<0.001.
To test if candidate compounds can disrupt the AFF4-CCNT1 interaction in vitro, we established and optimized a bead-based AlphaLISA assay with recombinant CCNT1 (1-300) protein and synthesized Biotin-AFF4 peptides (AA 32-67) (FIGS. 8A, 8B and 8C).
AlphaLISA Assay. The interaction of CCNT1-AFF4 was measured by Perkin Elmer's bead-based AlphaLISA assays. […]
In general terms: In Alpha technology, singlet oxygen from a donor bead excites a nearby acceptor bead.
The compound `Cc1nccnc1NC(=O)C(=O)CC(=O)c1ccc(F)cc1` [NUCC-0201596] registered a half-maximal inhibitory concentration (IC50) of no less than 30 µM.
In turn, `O=C(CC(=O)c1ccc(F)cc1)C(=O)NCc1ccccc1` [NUCC-0201688] yielded a half-maximal inhibitory concentration (IC50) of no less than 30 µM.
For the compound `O=C(CC(=O)c1ccc(F)cc1)C(=O)NCc1ccncc1` [NUCC-0201689], the IC50 is no less than 30 µM.
For `O=C(CC(=O)c1ccc(F)cc1)C(=O)Nc1nn[nH]n1` [NUCC-0201690], the half-inhibitory concentration (IC50) was 9.88 ± 0.6 µM.
For the compound `Cc1nc(NC(=O)C(=O)CC(=O)c2ccc(F)cc2)no1` [NUCC-0201691], the concentration for half-maximal inhibition (IC50) was no less than 60 µM.
Compound `O=C(CC(=O)c1ccc(F)cc1)C(=O)Nc1nccs1` [NUCC-0201692] displayed an IC50 of 20.8 ± 4.2 µM.
On the same count and under the same terms, to `O=C(CC(=O)c1ccc(F)cc1)C(=O)Nc1cncc(F)c1` [NUCC-0201693] belongs 7.42 ± 0.26 µM; to `COc1cccc(C(=O)CC(=O)C(=O)Nc2ccc(F)c(F)c2)c1` [NUCC-0201921], 17.4 µM.
In the case of `COc1cc(NC(=O)C(=O)CC(=O)c2cccc(OC)c2)cc(OC)c1` [NUCC-0201922], the 50% inhibitory concentration (IC50) was found to be 14.3 µM. The IC50 values of the last two compounds are within 1.5-fold of each other.
For the compound `COc1cccc(C(=O)CC(=O)C(=O)Nc2ccc(Cl)c(Cl)c2)c1` [NUCC-0201923], 12.8 µM corresponded to half-maximal inhibition (IC50). This IC50 and that of the compound before are within 1.5-fold of each other.
Same read-out and setting: for `COc1cccc(C(=O)CC(=O)C(=O)Nc2ccc(F)cc2)c1` [NUCC-0201924] the value was 20 µM.
In turn, `COc1cccc(C(=O)CC(=O)C(=O)Nc2cccc(Cl)c2)c1` [NUCC-0201925] returned a 50% inhibitory concentration (IC50) of 14.4 µM. The IC50 values of the last two compounds are within 1.5-fold of each other.
`COc1cccc(C(=O)CC(=O)C(=O)Nc2cc(C(=O)O)ccc2C)c1` [NUCC-0201926] showed an IC50 of 15.2 ± 8 µM.
Same read-out and setting: for `COc1cccc(C(=O)CC(=O)C(=O)Nc2cncnc2C)c1` [NUCC-0201927] the value was 17.9 ± 2.4 µM.
Still for that read-out and setting: to `COc1cccc(C(=O)CC(=O)C(=O)Nc2cccc(OC)c2C)c1` [NUCC-0201929] belongs 15.7 µM; to `COc1cccc(NC(=O)C(=O)CC(=O)c2ccc(F)cc2)c1C` [NUCC-0202067], 21.3 ± 3.1 µM.
Still for that read-out and setting: to `O=C(CC(=O)c1ccc(F)cc1)C(=O)Nc1cccc(Cl)c1` [NUCC-0202068] belongs 11.4 ± 0.9 µM; to `O=C(CC(=O)c1ccc(F)cc1)C(=O)NC1CCCC1` [NUCC-0202069], no less than 60 µM.
The compound `Cc1ccccc1NC(=O)C(=O)CC(=O)c1ccc(F)cc1` [NUCC-0202092] gave an IC50 of 14.8 ± 2 µM.
As to `Cc1ccc(Cl)cc1NC(=O)[C@@H](O)CC(=O)c1ccc(F)cc1` [NUCC-0202170], the IC50 was determined as 30.6 ± 1.4 µM.

Still in this data set, the particulars now being: AlphaLISA; IC50 converted to Ki with the Cheng and Prusoff equation; read-out: Ki, inhibition of the AFF4-CCNT1 interaction.
Turning to `Cc1ccc(Cl)cc1NC(=O)C(=O)CC(=O)c1ccc(F)cc1` [KL-2, N-(5-chloro-2-methylphenyl)-4-oxo-(4-fluorophenyl)-2-oxobutanamide], the Ki stood at 1.5 µM.

Staying with this data set, now noted: tested at 20 μM.
For the compound `CN1CC[C@H](c2c(O)cc(O)c3c(=O)cc(-c4ccccc4Cl)oc23)[C@H](O)C1` [flavopiridol, reference compound], the “disruption of the AFF4-CCNT1 interaction” value is reported as “neither the pan-CDK9 kinase inhibitor flavopiridol nor the BET domain inhibitors disrupted the AFF4-CCNT1 interaction”.

As a reminder, the IC50 is the concentration needed to halve the response being measured. Read a low IC50 as higher potency. In general, Ki refers to the dissociation constant of the complex between target and ligand, obtained from inhibition or displacement.
